Laboratory results reported in ChEMBL document CHEMBL1147436, “Synthesis of N,N'-disubstituted 3-aminobenzo[c] and [d]azepin-2-ones as potent and specific farnesyl transferase inhibitors” (Bioorg Med Chem Lett, 2004).

Legend:
[1] = target: T1, Protein farnesyltransferase (Homo sapiens, UniProt P49354+P49356); assay: Inhibition of farnesyltransferase; format: protein-complex assay
[2] = Inhibitory activity against v-H-Ras gene transfected cell line; format: functional
[3] = target: T1, Protein farnesyltransferase; assay: Inhibition of Farnesyltransferase; format: protein-complex assay
Mus musculus [4] = assay: Percent control tumor size in mouse xenograft assay (rat H-ras transformed fibroblasts) at 200 mg/kg peroral dose; format: functional; settings: route oral
Mus musculus [5] = assay: Percent control tumor size in mouse xenograft assay (rat H-ras transformed fibroblasts) at 100 mg/kg peroral dose; format: functional; settings: route oral
[6] = Inhibition of geranylgeranyl transferase

SMILES	IC50 [1] [nM]	IC50 [2] [nM]	IC50 [3] [nM]	Control (Mus musculus [4]) [%]	Control (Mus musculus [5]) [%]	IC50 [6] [nM]
N#Cc1ccc(Cn2cncc2CNC2Cc3ccccc3CN(Cc3cc(F)cc(F)c3F)C2=O)cc1 (centres undefined)	18	47				
Cc1ccccc1CN1CCc2ccccc2C(NCc2cncn2Cc2ccc(C#N)cc2)C1=O (centres undefined)	54	96				
N#Cc1ccc(Cn2cncc2CNC2C(=O)N(c3cc(Cl)cc(Cl)c3)CCc3ccccc32)cc1 (centres undefined)		19	32			
N#Cc1ccc(Cn2cncc2CNC2C(=O)N(Cc3cccc(F)c3)CCc3ccccc32)cc1 (centres undefined)	78	67				
N#Cc1ccc(Cn2cncc2CN[C@H]2CCCCN(Cc3ccccc3)C2=O)cc1	8	10				
N#Cc1ccc(Cn2cncc2CNC2C(=O)N(c3ccccc3)CCc3ccccc32)cc1 (centres undefined)	54	95				
N#Cc1ccc(Cn2cncc2CNC2C(=O)N(Cc3cc(F)cc(F)c3)CCc3ccccc32)cc1 (centres undefined)	26	379				
Cc1ccccc1CN1Cc2ccccc2CC(NCc2cncn2Cc2ccc(C#N)cc2)C1=O (centres undefined)	3	4		57	76	7100
N#Cc1ccc(Cn2cncc2CN[C@H]2Cc3ccccc3CN(c3cccc(Cl)c3)C2=O)cc1	1	7		35	60	25000
N#Cc1ccc(Cn2cncc2CN[C@H]2Cc3ccccc3CN(c3ccccc3)C2=O)cc1	19	16				
N#Cc1ccc(Cn2cncc2CNC2Cc3ccccc3CN(Cc3ccc(Cl)cc3Cl)C2=O)cc1 (centres undefined)	142	141				
N#Cc1ccc(Cn2cncc2CNC2Cc3ccccc3CN(c3cc(F)cc(F)c3)C2=O)cc1 (centres undefined)	10	40				
N#Cc1ccc(Cn2cncc2CNC2Cc3ccccc3CN(CC3CCCCC3)C2=O)cc1 (centres undefined)	47	26				
N#Cc1ccc(Cn2cncc2CNC2Cc3ccccc3CN(Cc3ccc(F)cc3F)C2=O)cc1 (centres undefined)	55	115				
N#Cc1ccc(Cn2cncc2CNC2C(=O)N(Cc3cccc(Br)c3)CCc3ccccc32)cc1 (centres undefined)	22	60				
N#Cc1ccc(Cn2cncc2CNC2C(=O)N(c3cc(F)cc(F)c3)CCc3ccccc32)cc1 (centres undefined)	62	86				
N#Cc1ccc(Cn2cncc2CNC2Cc3ccccc3CN(c3cc(Cl)cc(Cl)c3)C2=O)cc1 (centres undefined)	15	7				
N#Cc1ccc(Cn2cncc2CNC2C(=O)N(Cc3ccccc3Cl)CCc3ccccc32)cc1 (centres undefined)	23	92				
N#Cc1ccc(Cn2cncc2CNC2Cc3ccccc3CN(Cc3cc(F)cc(F)c3)C2=O)cc1 (centres undefined)	8	16				
N#Cc1ccc(Cn2cncc2CNC2Cc3ccccc3CN(Cc3ccccc3)C2=O)cc1 (centres undefined)	17	6				
N#Cc1ccc(Cn2cncc2CNC2Cc3ccccc3CN(Cc3cccc(Cl)c3)C2=O)cc1 (centres undefined)	6	4				
N#Cc1ccc(Cn2cncc2CNC2Cc3ccccc3CN(Cc3ccccc3Cl)C2=O)cc1 (centres undefined)	10	6				
N#Cc1ccc(Cn2cncc2CNC2C(=O)N(Cc3cccc(Cl)c3)CCc3ccccc32)cc1 (centres undefined)	23	183				
N#Cc1ccc(Cn2cncc2CNC2Cc3ccccc3CN(c3ccccc3)C2=O)cc1 (racemic)	26	36				
N#Cc1ccc(Cn2cncc2CNC2Cc3ccccc3CN(c3cccc(Cl)c3)C2=O)cc1 (racemic)	4	16				
N#Cc1ccc(Cn2cncc2CNC2Cc3ccccc3CN(c3cccc([N+](=O)[O-])c3)C2=O)cc1 (racemic)	13	46				
N#Cc1ccc(Cn2cncc2CNC2Cc3ccccc3CN(c3cccc(F)c3)C2=O)cc1 (racemic)	9	39				
COc1cccc(N2Cc3ccccc3CC(NCc3cncn3Cc3ccc(C#N)cc3)C2=O)c1 (racemic)	6	15				
N#Cc1ccc(Cn2cncc2CNC2Cc3ccccc3CN(c3cccc(Br)c3)C2=O)cc1 (racemic)	15	5				
N#Cc1ccc(Cn2cncc2CNC2C(=O)N(c3cccc(Cl)c3)CCc3ccccc32)cc1 (racemic)	19	39		43	70	7700
